Patent publication US9849116B2 (KNOPP BIOSCIENCES LLC, priority 2008, dated 2017)
“And” between values parts separate entries of the source, which are not always exact repeats. Equal entries are not always repeated.

Tests used:
[1] = target: D1 dopamine receptor (Homo sapiens, UniProt P21728)
Method: (§1) These concentrations were tested in cell lines expressing select human cloned dopamine receptors (D2S, D3).

[2] = target: D5 dopamine receptor (Homo sapiens, UniProt P21918)
Method: as §1

[3] = in vivo; settings: both, rat, in vivo
Method: (§2) Following this study, 3- and 6-month repeat dose toxicology studies were completed at doses of 30, 100, and 300 mg/kg.

[4] = test system: rats; experiment: in vivo
Method: as §2

[5] = clinical; settings: human; for AUC(0-t): AUC(0-t) (mean ± SD); for Vd/F: Vz/F (mean ± SD); for CL renal: plasma and urine
Method: (§3) Safety observations included vital signs, physical examination, clinical laboratory tests, ECGs, and adverse event reporting. Blood and urine samples were collected pre-dose and for 72 hours post-dose to assess the pharmacokinetics.

[6] = test system: healthy volunteers; experiment: clinical
Method: as §3

[7] = plasma, po, 50 mg, single 50 mg oral dose, fasted
[8] = plasma, po, 150 mg, single 150 mg oral dose, fasted
[9] = plasma, po, 150 mg, single 150 mg oral dose, fed
[10] = plasma, po, 300 mg, single 300 mg oral dose, fasted
[11] = single 150 mg oral dose, fasted
[12] = single 300 mg oral dose, fasted

Sequence of D1 dopamine receptor (P21728 whole entry): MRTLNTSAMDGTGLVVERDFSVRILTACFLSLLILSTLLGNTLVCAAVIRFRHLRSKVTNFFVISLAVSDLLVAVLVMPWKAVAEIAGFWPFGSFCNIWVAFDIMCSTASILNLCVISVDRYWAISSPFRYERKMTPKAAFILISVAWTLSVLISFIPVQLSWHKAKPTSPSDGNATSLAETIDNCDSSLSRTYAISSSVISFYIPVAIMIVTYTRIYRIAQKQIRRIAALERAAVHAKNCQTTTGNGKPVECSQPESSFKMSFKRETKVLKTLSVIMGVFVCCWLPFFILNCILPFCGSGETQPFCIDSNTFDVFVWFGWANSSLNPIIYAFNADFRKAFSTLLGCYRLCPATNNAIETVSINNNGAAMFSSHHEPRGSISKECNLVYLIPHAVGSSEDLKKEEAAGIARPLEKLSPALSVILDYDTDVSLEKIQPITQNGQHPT
Sequence of D5 dopamine receptor (P21918 whole entry): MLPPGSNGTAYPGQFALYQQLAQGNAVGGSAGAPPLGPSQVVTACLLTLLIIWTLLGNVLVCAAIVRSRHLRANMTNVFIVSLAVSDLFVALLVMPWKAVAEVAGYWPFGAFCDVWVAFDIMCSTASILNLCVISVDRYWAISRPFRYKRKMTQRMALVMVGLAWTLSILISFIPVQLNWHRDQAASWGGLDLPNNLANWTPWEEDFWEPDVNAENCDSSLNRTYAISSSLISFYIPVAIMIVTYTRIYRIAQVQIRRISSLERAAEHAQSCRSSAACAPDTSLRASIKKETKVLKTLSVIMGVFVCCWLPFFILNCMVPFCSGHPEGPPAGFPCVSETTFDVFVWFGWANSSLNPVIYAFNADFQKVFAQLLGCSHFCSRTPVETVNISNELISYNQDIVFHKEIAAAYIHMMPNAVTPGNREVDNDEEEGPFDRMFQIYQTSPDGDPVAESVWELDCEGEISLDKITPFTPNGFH

For `CCCN[C@@H]1CCc2nc(N)sc2C1` [(R)-pramipexole, (6R)-4,5,6,7-tetrahydro-N6-propyl-2,6-benzothiazole-diamine], the “interaction with D1 dopamine receptor” value [1] was “no significant interaction”, the “interaction with D5 dopamine receptor” value [2] was “no significant interaction” and the NOAEL at 3 months [3] was 100 mg/kg. For the same compound, the NOAEL at 14 days [3] was 150 mg/kg, the “target organ toxicity by histopathology examination” value ([4]; rat, in vivo, 300 mg/kg) was “some target organ toxicity” and the “test article related deaths” value ([4]; rats, 3 months, 30, 100, 300 mg/kg) was “no test article related deaths”. The mortality ([4]; rats, high dose 500 mg/kg, 14 days) was “caused mortality”, the AUC(0-t) ([5]; blood, po, 50 mg, single 50 mg oral dose, fasted) was 989 ng·h/mL and the AUC(0-inf) ([5]; blood, po, 50 mg, AUC(inf) (mean ± SD), single 50 mg oral dose, fasted) was 1240 ng·h/mL. For the same compound, the AUC(0-t) ([5]; blood, po, 150 mg, single 150 mg oral dose, fasted) was 3390 ng·h/mL, the AUC(0-inf) ([5]; blood, po, 150 mg, AUC(inf) (mean ± SD), single 150 mg oral dose, fasted) was 3820 ng·h/mL and the AUC(0-t) ([5]; blood, po, 300 mg, single 300 mg oral dose, fasted) was 8340 ng·h/mL. The Cmax ([5]; in vivo, oral, 150 mg) was 315 ± 62 ng/mL, the Tmax ([5]; in vivo, oral, 150 mg) was 2.58 h and the AUC(0-inf) ([5]; in vivo, oral, 150 mg, AUC (inf) (mean ± SD), CL001, 150 mg SD, second 150 mg line, Food printed Fasted) was 3400 ng·h/mL. The AUC(0-t) ([5]; in vivo, oral, 150 mg, CL001, 150 mg SD, second 150 mg line, Food printed Fasted) was 3100 ng·h/mL, the Vd/F ([5]; in vivo, oral, 150 mg, 150 mg SD, second 150 mg line, Food printed Fasted) was 406 ± 62.8 L and the AUC(0-inf) ([5]; in vivo, po, 300 mg, AUC(inf) (mean ± SD), single 300 mg oral dose, fasted) was 8620 ng·h/mL. For the same compound, the CL renal ([5]; po, 50 mg) was 628 ± 149 mL/min, the CL renal ([5]; po, 150 mg) was 310 ± 74.3 mL/min and the CL renal ([5]; po, 300 mg) was 441 ± 159 mL/min. The AUC(0-t) [5, 7] was 989 ± 295 ng·h/mL, the AUC(0-inf) ([5]; plasma, po, 50 mg, AUC(inf) (mean ± SD), single 50 mg oral dose, fasted) was 1250 ng·h/mL and the Vd/F [5, 7] was 395 ± 61.9 L. For the same compound, the AUC(0-inf) ([5]; plasma, po, 50 mg, mean exposure (AUC0-∞), single oral 50 mg, fasted) was 1250 ng·h/mL, the Cmax ([5]; plasma, po, 150 mg) was 360 ng/mL and the AUC(0-t) [5, 8] was 3390 ng·h/mL. The AUC(0-t) [5, 9] was 3100 ng·h/mL, the AUC(0-inf) ([5]; plasma, po, 150 mg, AUC(inf) (mean ± SD), single 150 mg oral dose, fasted) was 3820 ng·h/mL and the AUC(0-inf) ([5]; plasma, po, 150 mg, AUC(inf) (mean ± SD), single 150 mg oral dose, fed) was 3400 ng·h/mL. The Vd/F [5, 8] was 411 ± 81 L, the Vd/F [5, 9] was 406 ± 62.8 L and the AUC(0-inf) ([5]; plasma, po, 150 mg, mean exposure (AUC0-∞), single oral 150 mg, fasted) was 3820 ng·h/mL. For the same compound, the Cmax ([5]; plasma, po, 300 mg) was 781 ng/mL, the Tmax ([5]; plasma, po, 300 mg) was 1.96 h and the AUC(0-t) [5, 10] was 8340 ng·h/mL. It also gave an AUC(0-inf) ([5]; plasma, po, 300 mg, AUC(inf) (mean ± SD), single 300 mg oral dose, fasted) of 8620 ng·h/mL, a Vd/F [5, 10] of 346 ± 98.5 L and an AUC(0-inf) ([5]; plasma, po, 300 mg, mean exposure (AUC0-∞), single oral 300 mg, fasted) of 8620 ng·h/mL. The “CL/F (mean ± SD)” value ([6]; 50 mg SD, Fasted) was 706 ± 182 mL/h, the “CL/F (mean ± SD)” value ([6]; 150 mg SD, Fasted) was 692 ± 183 mL/h and the “CL/F (mean ± SD)” value ([6]; 150 mg SD, second 150 mg line, Food printed Fasted) was 774 ± 165 mL/h. The “CL/F (mean ± SD)” value ([6]; 300 mg SD, Fasted) was 659 ± 260 mL/h, the “urinary excretion of unchanged drug, share of drug elimination” value ([6]; across dose levels) was “approximately 70%” and the “CL/F (mean ± SD)” value ([6]; single 50 mg oral dose, fasted) was 42400 ± 10900 mL/h. For the same compound, the “Fe (mean ± SD)” value ([6]; single 50 mg oral dose, fasted) was 70.7 ± 10.4 % Dose, the “Ue (mean ± SD)” value ([6]; single 50 mg oral dose, fasted) was 35.3 ± 5.19 mg and 35.3 ± 5.19 ^ mg and the “λz (mean ± SD)” value ([6]; single 50 mg oral dose, fasted) was 0.1064 ± 0.0171 h⁻¹. The “CL/F (mean ± SD)” value [6, 11] was 41500 ± 11000 mL/h, the “Fe (mean ± SD)” value [6, 11] was 40.3 ± 4.69 % Dose and the “Ue (mean ± SD)” value [6, 11] was 60.5 ± 7.04 mg and 60.5 ± 7.04 ^ mg. For the same compound, the “λz (mean ± SD)” value [6, 11] was 0.1001 ± 0.0087 h⁻¹, the “CL/F (mean ± SD)” value ([6]; single 150 mg oral dose, fed) was 46400 ± 9900 mL/h and the “λz (mean ± SD)” value ([6]; single 150 mg oral dose, fed) was 0.1152 ± 0.0256 h⁻¹. The “effect of a high fat/high calorie meal on absorption and elimination” value ([6]; single 150 mg, fed versus fasted) was “essentially no effect”, the “CL/F (mean ± SD)” value [6, 12] was 39500 ± 15600 mL/h and the “Fe (mean ± SD)” value [6, 12] was 65.8 ± 9.33 % Dose. The “Ue (mean ± SD)” value [6, 12] was 198 ± 28.0 mg and 198 ± 28.0 ^ mg and the “λz (mean ± SD)” value [6, 12] was 0.1151 ± 0.0309 h⁻¹.
